Results from the NIST ThermoML archive (doi:10.1021/je050200w).
Numbers after ± are expanded uncertainties.

Assay: xn = mol fraction of the nth substance listed
Conditions: 101 kPa, Liquid

CCCCCCCCCO [nonan-1-ol] + CCCCCCCCCCO
Conditions	mass density [kg/m3]	viscosity [mPa·s]
283.15 K, x1 = 0.1009	836.5 ± 0.6	21.5 ± 0.56
283.15 K, x1 = 0.2	836.4 ± 0.6	21.12 ± 0.55
283.15 K, x1 = 0.3	836.2 ± 0.7	20.65 ± 0.54
283.15 K, x1 = 0.4002	836 ± 0.7	20.15 ± 0.53
283.15 K, x1 = 0.5001	835.9 ± 0.7	19.71 ± 0.53
283.15 K, x1 = 0.6003	835.7 ± 0.8	19.17 ± 0.52
283.15 K, x1 = 0.6996	835.6 ± 0.8	18.59 ± 0.5
283.15 K, x1 = 0.7999	835.4 ± 0.9	18.14 ± 0.5
283.15 K, x1 = 0.9047	835.2 ± 0.9	17.78 ± 0.49
283.15 K, x1 = 1	835 ± 0.9	17.44 ± 0.48
288.15 K, x1 = 0.1009	833.2 ± 0.6	17.44 ± 0.46
288.15 K, x1 = 0.2	833 ± 0.6	17.06 ± 0.46
288.15 K, x1 = 0.3	832.8 ± 0.7	16.69 ± 0.45
288.15 K, x1 = 0.3999	832.7 ± 0.7	16.2 ± 0.44
288.15 K, x1 = 0.5001	832.5 ± 0.7	15.82 ± 0.43
288.15 K, x1 = 0.6003	832.3 ± 0.8	15.44 ± 0.42
288.15 K, x1 = 0.6996	832.2 ± 0.8	15.2 ± 0.42
288.15 K, x1 = 0.7999	832 ± 0.9	14.85 ± 0.41
288.15 K, x1 = 0.9047	831.8 ± 0.9	14.48 ± 0.41
288.15 K, x1 = 1	831.5 ± 0.9	14.27 ± 0.4
293.15 K, x1 = 0.1009	829.8 ± 0.6	14.1 ± 0.38
293.15 K, x1 = 0.2	829.6 ± 0.6	13.73 ± 0.38
293.15 K, x1 = 0.3	829.5 ± 0.7	13.5 ± 0.37
293.15 K, x1 = 0.3999	829.3 ± 0.7	13.22 ± 0.37
293.15 K, x1 = 0.5	829.1 ± 0.7	13 ± 0.36
293.15 K, x1 = 0.6003	829 ± 0.8	12.48 ± 0.35
293.15 K, x1 = 0.6996	828.8 ± 0.8	12.36 ± 0.35
293.15 K, x1 = 0.7999	828.6 ± 0.9	12.09 ± 0.34
293.15 K, x1 = 0.9047	828.4 ± 0.9	11.83 ± 0.34
293.15 K, x1 = 1	828.1 ± 0.9	11.63 ± 0.34
298.15 K, x1 = 0.1009	826.4 ± 0.6	11.52 ± 0.32
298.15 K, x1 = 0.2	826.2 ± 0.6	11.36 ± 0.32
298.15 K, x1 = 0.3	826.1 ± 0.7	11.13 ± 0.31
298.15 K, x1 = 0.4002	825.9 ± 0.7	10.87 ± 0.31
298.15 K, x1 = 0.5	825.7 ± 0.7	10.62 ± 0.3
298.15 K, x1 = 0.6003	825.5 ± 0.8	10.38 ± 0.3
298.15 K, x1 = 0.6996	825.4 ± 0.8	10.17 ± 0.3
298.15 K, x1 = 0.7999	825.1 ± 0.9	9.933 ± 0.29
298.15 K, x1 = 0.9047	824.9 ± 0.9	9.725 ± 0.29
298.15 K, x1 = 1	824.7 ± 0.9	9.519 ± 0.28
303.15 K, x1 = 0.1009	822.9 ± 0.6	9.398 ± 0.27
303.15 K, x1 = 0.2	822.8 ± 0.6	9.242 ± 0.27
303.15 K, x1 = 0.3	822.6 ± 0.7	9.083 ± 0.26
303.15 K, x1 = 0.4002	822.4 ± 0.7	8.886 ± 0.26
303.15 K, x1 = 0.5001	822.2 ± 0.7	8.703 ± 0.26
303.15 K, x1 = 0.6003	822 ± 0.8	8.504 ± 0.25
303.15 K, x1 = 0.6996	821.9 ± 0.8	8.332 ± 0.25
303.15 K, x1 = 0.7999	821.7 ± 0.9	8.16 ± 0.25
303.15 K, x1 = 0.9047	821.5 ± 0.9	7.929 ± 0.24
303.15 K, x1 = 1	821.3 ± 0.9	7.806 ± 0.24
308.15 K, x1 = 0.1009	819.5 ± 0.6	7.867 ± 0.23
308.15 K, x1 = 0.2	819.4 ± 0.6	7.739 ± 0.23
308.15 K, x1 = 0.3	819.1 ± 0.7	7.613 ± 0.23
308.15 K, x1 = 0.4002	819 ± 0.7	7.453 ± 0.23
308.15 K, x1 = 0.5	818.8 ± 0.7	7.307 ± 0.22
308.15 K, x1 = 0.6003	818.6 ± 0.8	7.151 ± 0.22
308.15 K, x1 = 0.6996	818.5 ± 0.8	7.014 ± 0.22
308.15 K, x1 = 0.7999	818.3 ± 0.9	6.857 ± 0.21
308.15 K, x1 = 0.9047	818 ± 0.9	6.693 ± 0.21
308.15 K, x1 = 1	817.8 ± 0.9	6.604 ± 0.21
313.15 K, x1 = 0.1009	816.1 ± 0.6	6.704 ± 0.21
313.15 K, x1 = 0.2	815.9 ± 0.6	6.629 ± 0.2
313.15 K, x1 = 0.3	815.7 ± 0.7	6.517 ± 0.2
313.15 K, x1 = 0.4002	815.6 ± 0.7	6.4 ± 0.2
313.15 K, x1 = 0.5001	815.3 ± 0.7	6.234 ± 0.2
313.15 K, x1 = 0.6003	815.2 ± 0.8	6.15 ± 0.2
313.15 K, x1 = 0.6996	815 ± 0.8	6.026 ± 0.19
313.15 K, x1 = 0.7999	814.8 ± 0.9	5.87 ± 0.19
313.15 K, x1 = 0.9047	814.5 ± 0.9	5.779 ± 0.19
313.15 K, x1 = 1	814.3 ± 0.9	5.668 ± 0.19
